# Columns and labels:
# [1] = test system: chow fed obese female Zucker rats; assay: Experiments B, C, D, E: serum lipids, glucose, insulin, body and liver weight in obese female Zucker rats, 14 days; type: in vivo, rat; details: for Body Weight Gain (% of Pretreatment) / HDL-Cholesterol (% of Pretreatment) / Non HDL-Cholesterol (% of Pretreatment) / Triglycerides (% of Pretreatment): 14 days
# Experimental: In a number of different experiments, illustrative compounds of the invention and troglitazone were administered daily at various doses to 10-week old chow fed obese female Zucker rats for 14 days in the morning by oral gavage in 1.5% carboxymethylcellulose/0.2% Tween-20 (dosing vehicle). Animals were weighed daily. Animals were allowed free access to rodent chow and water throughout the study. Blood glucose was determined after a 6-hour fast in the afternoon without anesthesia from a tail vein. Serum was also prepared from a blood sample subsequently obtained from the orbital venous plexus (with O2/CO2 anesthesia) prior to and after one week treatment and used lipid and insulin determinations. At two weeks, blood glucose was again determined after a 6-hour fast without anesthesia from a tail vein. Soon thereafter, animals were sacrificed by CO2 inhalation in the evening and cardiac blood serum was collected and assessed for various lipids and insulin. Body weight was determined daily prior to dosing and at the time of euthanasia.
# [2] = test system: primary rat hepatocytes; assay: Synthesis of non-saponified and saponified lipids (14C-acetate incorporation) in hepatocytes; type: cell-based; details: 100 μM; 14C-acetate 2 hr; vs no compound control
# Experimental: A male Sprague-Dawley rat was anesthetized by administration of sodium pentobarbitol by intraparitoneal injection at 50 mg/kg. In situ perfusion of the liver was performed as follows. […] To digest the liver, DSC solution (6.7 mM KCl, 143 mM NaCl, 9.2 mM Na HEPES, 5 mM CaCl2-2H2O, 1.7 mM Fructose, 0.029 mM Phenol red, 0.2% BSA, 100 U/ml collagenase Type I, 93 U/ml Hyaluronidase, 160 BAEE/ml trypsin inhibitor, pH 7.5) was perfused through the liver at a flow rate of 30 ml/min for 6 minutes at a temperature of 37° C. After digestion, cells were dispersed in a solution of DMEM-(DMEM containing 2 mM GlutMax-1, 0.2% BSA, 5% FBS, 12 nM insulin, 1.2 μM hydrocortisone) to stop the digestion process. The crude cell suspension was filtered through three layers of stainless steel mesh with pore sizes of 250, 106, and 75 μm respectively. Filtered cells were centrifuged at 50×g for two minutes and the supernatant discarded. The resulting cell pellet was resuspended in DMEM and centrifuged again. This final cell pellet was resuspended in DMEM+HS solution (DMEM containing 2 mM GlutMax-1, 20 nM delta-aminolevulinic acid, 17.4 mM MEM non-essential amino acids, 20% FBS, 12 nM insulin, 1.2 µM hydrocortisone) and plated to form monolayer cultures at a density of 100×10^3 cells/cm^2 on collagen coated culture dishes. Four hours after initial plating, media was changed to DMEM+(DMEM containing 2 mM GlutMax-1, 20 nM delta-aminolevulinic acid, 17.4 mM MEM non-essential amino acids, 10% FBS, 12 nM insulin, 1.2 μM hydrocortisone) and remained on cells overnight.
# To test the effect of illustrative compounds of the invention on synthesis rates of non-saponified and saponified lipids, the monolayer cultures were exposed to 1 μM of lovastatin or 100 μM Compound A, B, D, E or F in DMEM+ containing 1 μCi/ml ^14C-acetate. Control cells were exposed to the same media lacking lovastatin or the test compounds. All cells were exposed to 0.1% DMSO. Metabolic labeling with ^14C-acetate continued for 2 hr at 37° C. After labeling, cells were washed twice with 1 ml of PBS followed by lysing in 1 ml of deionized water. Cells were scraped from the dishes, transferred to glass tubes and sonicated. 2.5 ml of 2:1 chloroform/methanol mixture was added followed by 1.5 ml of Phosphate Buffered Saline (PBS). To correct for extraction efficiency in the upcoming extractions, 3000 dpm of ^3H-cholesterol was added to each tube. Tubes were shaken for 30 min. to extract lipids into the organic phase followed by centrifugation for 10 minutes at 1000×g to separate the organic and aqueous phases. The lower organic phase containing total lipids was removed and placed in a new tube. The organic solution was evaporated under N2. […]
# [3] = Experiment C, 100 mg/kg, after two weeks of treatment
smiles,measurement,setting,value
"CC(C)(CO)CCCCOCCCCC(C)(C)CO [Compound A, 6-(6-hydroxy-5,5-dimethylhexyloxy)-2,2-dimethyl-hexan-1-ol]",Body Weight Gain (% of Pretreatment),"[1]; Experiment C, 1 mg/kg/day",+16.7 % of Pretreatment
same,HDL-Cholesterol (% of Pretreatment),"[1]; Experiment C, 1 mg/kg/day",−24.1 % of Pretreatment
same,Non HDL-Cholesterol (% of Pretreatment),"[1]; Experiment C, 1 mg/kg/day",−25.6 % of Pretreatment
same,Triglycerides (% of Pretreatment),"[1]; Experiment C, 1 mg/kg/day",−8.8 % of Pretreatment
same,Body Weight Gain (% of Pretreatment),"[1]; Experiment C, 3 mg/kg/day",+17.5 % of Pretreatment
same,HDL-Cholesterol (% of Pretreatment),"[1]; Experiment C, 3 mg/kg/day",−3.7 % of Pretreatment
same,Non HDL-Cholesterol (% of Pretreatment),"[1]; Experiment C, 3 mg/kg/day",−29.6 % of Pretreatment
same,Triglycerides (% of Pretreatment),"[1]; Experiment C, 3 mg/kg/day",−24.6 % of Pretreatment
same,Body Weight Gain (% of Pretreatment),"[1]; Experiment C, 10 mg/kg/day",+10.7 % of Pretreatment
same,HDL-Cholesterol (% of Pretreatment),"[1]; Experiment C, 10 mg/kg/day",+154.4 % of Pretreatment
same,Non HDL-Cholesterol (% of Pretreatment),"[1]; Experiment C, 10 mg/kg/day",−14.2 % of Pretreatment
same,Triglycerides (% of Pretreatment),"[1]; Experiment C, 10 mg/kg/day",−50.9 % of Pretreatment
same,Body Weight Gain (% of Pretreatment),"[1]; Experiment C, 30 mg/kg/day",+11.3 % of Pretreatment
same,HDL-Cholesterol (% of Pretreatment),"[1]; Experiment C, 30 mg/kg/day",+369.7 % of Pretreatment
same,Non HDL-Cholesterol (% of Pretreatment),"[1]; Experiment C, 30 mg/kg/day",+38.4 % of Pretreatment
same,Triglycerides (% of Pretreatment),"[1]; Experiment C, 30 mg/kg/day",−42.0 % of Pretreatment
same,glucose to insulin ratio,"[1]; Experiment C, 100 mg/kg",reduced
same,Body Weight Gain (% of Pretreatment),"[1]; Experiment C, 100 mg/kg/day",+9.2 % of Pretreatment
same,HDL-Cholesterol (% of Pretreatment),"[1]; Experiment C, 100 mg/kg/day",+801.8 % of Pretreatment
same,Non HDL-Cholesterol (% of Pretreatment),"[1]; Experiment C, 100 mg/kg/day",+45.1 % of Pretreatment
same,Triglycerides (% of Pretreatment),"[1]; Experiment C, 100 mg/kg/day",−57.0 % of Pretreatment
same,HDL-cholesterol increase,[1]; [3],802%
same,elevation of HDL-cholesterol,[1]; [3],9 fold
same,blood glucose,"[1]; Experiment C, 100 mg/kg, fasted",tendency to lower blood glucose
same,glucose to insulin ratio,"[1]; Experiment C, 1 and 3 mg/kg, two weeks",declined by approximately ⅓ to ½
same,weight gain,"[1]; Experiment C, 10, 30 and 100 mg/kg, after one and two weeks",markedly reduced
same,glucose to insulin ratio,"[1]; Experiment C, 10 and 30 mg/kg",sustained at pretreatment levels
same,minimal effective dose for reduction in serum triglycerides,"[1]; Experiment C, FIG. 10",approximately 3 mg/kg
same,dose at which elevation of serum total cholesterol begins,"[1]; Experiment C, FIG. 11",approximately 10 mg/kg/day
same,percent liver to body weight,"[1]; Experiment C, after two weeks of treatment, FIG. 16",increased in a dose dependent manner
same,serum triglyceride levels,"[1]; Experiment C, doses 1-100 mg/kg, FIG. 10",reduced serum triglyceride levels at all doses
same,rise in serum insulin,"[1]; Experiment C, higher doses (10, 30, 100 mg/kg)",largely curtailed or minimized
same,Body Weight Gain (% of Pretreatment),"[1]; Experiment D, 10 mg/kg/day",+2.2 % of Pretreatment
same,HDL-Cholesterol (% of Pretreatment),"[1]; Experiment D, 10 mg/kg/day",+133.9 % of Pretreatment
same,Non HDL-Cholesterol (% of Pretreatment),"[1]; Experiment D, 10 mg/kg/day",+49.3 % of Pretreatment
same,Triglycerides (% of Pretreatment),"[1]; Experiment D, 10 mg/kg/day",−11.1 % of Pretreatment
same,Body Weight Gain (% of Pretreatment),"[1]; Experiment D, 100 mg/kg/day",+4.5 % of Pretreatment
same,HDL-Cholesterol (% of Pretreatment),"[1]; Experiment D, 100 mg/kg/day",+187.9 % of Pretreatment
same,Non HDL-Cholesterol (% of Pretreatment),"[1]; Experiment D, 100 mg/kg/day",+7.5 % of Pretreatment
same,Triglycerides (% of Pretreatment),"[1]; Experiment D, 100 mg/kg/day",−62.9 % of Pretreatment
same,Body Weight Gain (% of Pretreatment),"[1]; Experiment E, 100 mg/kg/day",+19.1 % of Pretreatment
same,HDL-Cholesterol (% of Pretreatment),"[1]; Experiment E, 100 mg/kg/day",+232.1 % of Pretreatment
same,Non HDL-Cholesterol (% of Pretreatment),"[1]; Experiment E, 100 mg/kg/day",+7.2 % of Pretreatment
same,Triglycerides (% of Pretreatment),"[1]; Experiment E, 100 mg/kg/day",−43.2 % of Pretreatment
same,reduction of the rate of non-saponified lipid synthesis,[2],at least 85%
same,reduction of the rate of saponified lipid synthesis,[2],at least 85%

# Reference: patent US6506799B1, “Methods of treating cardiovascular diseases, dyslipidemia, dyslipoproteinemia, and hypertension with ether compounds” (Esperion Therapeutics, Inc., priority 1999, dated 2003)
